# Test results reported in the supplement of paper PMC10307832.
# Compound: COC1=C(C=C(C=C1)C2=CC3=NC=CN3C(=N2)NC4=C(C=CC=N4)C(=O)N)OC [BAY61-3606] + Nc1ncn([C@H]2C[C@H](O)[C@@H](CO)O2)c(=O)n1 [Decitabine] (partner 2 µM)
# Assay: relative viability (nuclei count vs DMSO), 5 days (fraction); higher = more cells survive
# Settings: first compound 0.02 µM
# Outline: (§1)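 Five library-drug doses in √10 steps were combined with a fixed anchor-drug dose, or a single drug was given alone, by pin tool to lung cancer cell lines in 1536-well plates the day after seeding. Nuclei were stained and counted after 5 days. Relative viability is the nuclei count in treated wells over that in vehicle wells, taken as the median of duplicate plates.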
row,Cell Line,relative viability
1,NCI-H1648,0.423
2,NCI-H1793,0.504
3,H3255,0.529
4,COR-L23,0.398
5,COR-L 105,0.764
6,LC-2-ad,0.849
7,LU99A,0.926
8,NCI-H358,0.226
9,A549,0.222
10,NCI-H522,0.68
11,SW 900,0.452
12,NCI-H1395,0.824
13,NCI-H1944,0.408
14,NCI-H2170,0.449
15,ABC-1,1.04
16,SK-MES-1,0.37

# Same assay, conditions: first compound 0.06325 µM
row,Cell Line,relative viability
1,NCI-H2342,0.853
2,RERF-LC-KJ,0.717
3,NCI-H1651,0.539
4,NCI-H1734,0.512
5,NCI-H2009,0.359
6,NCI-H596,0.967
7,SK-LU-1,0.725
8,SW 1573,0.553
9,LCLC-97TM1,0.222
10,NCI-H661,0.546
11,EMC-BAC-2,1.06
12,NCI-H2087,0.291
13,HCC-44,0.926
14,NCI-H727,0.8
15,LK-2,0.287
16,NCI-H2126,0.606

row,Cell Line,relative viability
1,NCI-H1648,0.511
2,NCI-H1793,0.501
3,H3255,0.571
4,COR-L23,0.441
5,COR-L 105,0.672
6,LC-2-ad,0.772
7,LU99A,1.01
8,NCI-H358,0.228
9,A549,0.261
10,NCI-H522,0.635
11,NCI-H1395,0.709
12,NCI-H1944,0.466
13,NCI-H2170,0.529
14,ABC-1,1.08
15,SK-MES-1,0.342

# Same assay, conditions: first compound 0.2 µM
row,Cell Line,relative viability
1,NCI-H2342,0.78
2,RERF-LC-KJ,0.654
3,NCI-H1651,0.555
4,NCI-H1734,0.503
5,NCI-H2009,0.352
6,NCI-H596,1.14
7,SK-LU-1,0.575
8,SW 1573,0.467
9,LCLC-97TM1,0.247
10,NCI-H661,0.546
11,EMC-BAC-2,1.04
12,NCI-H2087,0.295
13,HCC-44,0.931
14,NCI-H727,0.947
15,LK-2,0.362
16,NCI-H2126,0.583

row,Cell Line,relative viability
1,NCI-H1648,0.504
2,NCI-H1793,0.558
3,H3255,0.677
4,COR-L23,0.455
5,COR-L 105,0.543
6,LC-2-ad,0.775
7,LU99A,0.966
8,NCI-H358,0.241
9,A549,0.224
10,NCI-H522,0.732
11,NCI-H1395,0.799
12,NCI-H1944,0.424
13,NCI-H2170,0.485
14,ABC-1,0.957
15,SK-MES-1,0.377

# Same assay, conditions: first compound 0.6325 µM
row,Cell Line,relative viability
1,NCI-H2342,0.78
2,RERF-LC-KJ,0.659
3,NCI-H1651,0.568
4,NCI-H1734,0.504
5,NCI-H2009,0.365
6,NCI-H596,0.965
7,SK-LU-1,0.621
8,SW 1573,0.511
9,LCLC-97TM1,0.223
10,NCI-H661,0.573
11,EMC-BAC-2,1.19
12,NCI-H2087,0.269
13,HCC-44,0.911
14,NCI-H727,0.981
15,LK-2,0.28
16,NCI-H2126,0.623

row,Cell Line,relative viability
1,NCI-H1793,0.539
2,H3255,0.779
3,COR-L23,0.485
4,COR-L 105,0.63
5,LC-2-ad,0.778
6,LU99A,0.804
7,NCI-H358,0.228
8,A549,0.237
9,NCI-H522,0.742
10,SW 900,0.396
11,NCI-H1395,0.661
12,NCI-H1944,0.434
13,NCI-H2170,0.462
14,ABC-1,1.22
15,SK-MES-1,0.382

# Same assay, conditions: first compound 2 µM
row,Cell Line,relative viability
1,NCI-H2342,0.831
2,RERF-LC-KJ,0.556
3,NCI-H1651,0.481
4,NCI-H1734,0.388
5,NCI-H2009,0.415
6,NCI-H596,1.08
7,SK-LU-1,0.428
8,SW 1573,0.325
9,LCLC-97TM1,0.228
10,NCI-H661,0.534
11,EMC-BAC-2,0.986
12,NCI-H2087,0.229
13,HCC-44,0.957
14,NCI-H727,0.895
15,LK-2,0.342
16,NCI-H2126,0.555

row,Cell Line,relative viability
1,NCI-H1648,0.445
2,NCI-H1793,0.651
3,H3255,0.509
4,COR-L23,0.363
5,COR-L 105,0.475
6,LC-2-ad,0.92
7,LU99A,0.559
8,NCI-H358,0.14
9,A549,0.198
10,NCI-H522,0.517
11,SW 900,0.442
12,NCI-H1395,0.686
13,NCI-H1944,0.327
14,NCI-H2170,0.429
15,ABC-1,0.97
16,SK-MES-1,0.348

# Compound: COc1cccc2c1C(=O)c1c(O)c3c(c(O)c1C2=O)C[C@@](O)(C(=O)CO)C[C@@H]3O[C@H]1C[C@H](N)[C@H](O)[C@H](C)O1 [Doxorubicin] + C[C@@H](Oc1cc(-c2cnn(C3CCNCC3)c2)cnc1N)c1c(Cl)ccc(F)c1Cl [Crizotinib] (partner 1 µM)
# Assay: as above
# Settings: first compound 0.001 µM
# Outline: as §1
row,Cell Line,relative viability
1,RERF-LC-KJ,0.872
2,NCI-H1651,0.934
3,EBC-1,0.222
4,NCI-H1734,0.714
5,NCI-H2009,1.06
6,NCI-H596,0.984
7,SK-LU-1,1.15
8,SW 1573,0.905
9,LCLC-97TM1,0.365
10,NCI-H661,0.971
11,NCI-H2228,0.562
12,EMC-BAC-2,0.793
13,NCI-H2087,0.795
14,Calu-6,0.776
15,HCC-44,0.868
